According to publication PMC4386733 (Cell, 2013):
Entries after “also recorded” stand apart in the source; their conditions may differ. Values belong to the compound of their own block, whether it stands above or below them.

How the values were obtained:
hSTING^H232 (aa 140–379) = hSTING^H232 (aa 140–379) (Homo sapiens, UniProt Q86WV6, H232R); assay: ITC binding to hSTING^H232; settings: complex printed as hSTING^H232 in b72 (Figure 4C)
THP1 cells = assay: CXCL10 ELISA in THP1 cells after cGAMP stimulation; assay type: cell-based, human; settings: for EC50 comparison: Digitonin-mediated permeabilization
hSTING^H232 = hSTING^H232 (Homo sapiens, UniProt Q86WV6); assay: IFNB1 luciferase reporter in HEK293T cells, hSTING^H232; settings: cGAMP isomers and c[di-GMP] with digitonin, DMXAA in medium
Chain of hSTING^H232 (Q86WV6 whole entry): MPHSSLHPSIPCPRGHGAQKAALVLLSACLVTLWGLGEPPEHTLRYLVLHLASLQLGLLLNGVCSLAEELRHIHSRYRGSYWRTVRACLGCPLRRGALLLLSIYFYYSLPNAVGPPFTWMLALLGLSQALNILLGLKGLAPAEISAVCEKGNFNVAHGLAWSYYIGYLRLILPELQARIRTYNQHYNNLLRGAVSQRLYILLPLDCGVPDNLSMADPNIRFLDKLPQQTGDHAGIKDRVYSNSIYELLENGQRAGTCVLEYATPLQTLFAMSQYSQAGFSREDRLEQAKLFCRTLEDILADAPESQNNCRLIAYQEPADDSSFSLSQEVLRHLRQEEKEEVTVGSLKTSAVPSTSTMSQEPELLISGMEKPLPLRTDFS

hSTING^R232 [1] = target: T1, hSTING^R232 (Homo sapiens, UniProt Q86WV6, H232R); settings: ITC, Chen laboratory; ref Zhang et al., 2013; cited from earlier work
T1 sequence (Q86WV6 whole entry H232R): as the sequence (Q86WV6 whole entry) above, with H232R counted along it

hSTING S162I mutant = hSTING S162I mutant (Homo sapiens, UniProt Q86WV6, S162I); assay: IFNB1 luciferase reporter in HEK293T cells, hSTING S162I; assay type: cell-based; settings: HEK293T cellular assay
Chain of hSTING S162I mutant (Q86WV6 whole entry S162I): as the sequence (Q86WV6 whole entry) above, with S162I counted along it

mSting = settings: ref Conlon et al., 2013; cited from earlier work
[2] = target: hSTING^H232/A162 (S162A mutant) (Homo sapiens, UniProt Q86WV6, S162A); assay: ITC binding to S162A mutant of hSTING^H232
Chain of hSTING^H232/A162 (S162A mutant) (Q86WV6 140-379 S162A): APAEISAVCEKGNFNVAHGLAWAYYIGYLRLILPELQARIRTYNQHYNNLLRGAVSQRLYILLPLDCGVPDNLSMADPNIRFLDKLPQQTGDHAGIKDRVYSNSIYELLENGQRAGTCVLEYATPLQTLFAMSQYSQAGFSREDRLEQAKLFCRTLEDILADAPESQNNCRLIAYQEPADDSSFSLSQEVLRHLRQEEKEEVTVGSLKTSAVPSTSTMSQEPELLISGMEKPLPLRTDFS

hSTING = settings: ref Conlon et al., 2013; cited from earlier work
hSTING^R232/A162 = hSTING^R232/A162 (Homo sapiens, UniProt Q86WV6, H232R/S162A); assay: ITC binding to hSTING^R232/A162
Chain of hSTING^R232/A162 (Q86WV6 140-379 S162A/H232R): as the sequence (Q86WV6 140-379 S162A) above, with H93R counted along it

BMDMs = assay: Western blot of Tbk1 and Irf3 phosphorylation in BMDMs; assay type: cell-based, mouse; settings: 2 and 4 hr after treatment, compared to the two other isomers
[3] = system: bone-marrow-derived macrophages (BMDMs); settings: 20 µM added to medium, 4 hr, relative to mock treatment
hSTING^THP1 = hSTING^THP1 (Homo sapiens, UniProt Q86WV6, G230A/H232R/H72R/R293Q); assay: IFNB1 luciferase reporter in HEK293T cells, hSTING^THP1; settings: digitonin delivery, c[di-GMP] 5 and 10 µM
Chain of hSTING^THP1 (Q86WV6 whole entry H72R/G230A/H232R/R293Q): as the sequence (Q86WV6 whole entry) above, with H72R, G230A, H232R, R293Q counted along it

hSTING^R232 [4] = target: T1, hSTING^R232; assay: IFNB1 luciferase reporter in HEK293T cells, hSTING^R232; settings: digitonin delivery
[5] = addition to medium without Digitonin, 18 hr

Chain of hSTING^H232 (aa 140–379) (Q86WV6 140-379 H232R): as the sequence (Q86WV6 140-379 S162A) above, with A23S, H93R counted along it

Compound: Nc1nc2c(ncn2[C@@H]2O[C@@H]3COP(=O)(O)O[C@@H]4[C@H](O)[C@@H](COP(=O)(O)O[C@@H]2[C@@H]3O)O[C@H]4n2cnc3c(N)ncnc32)c(=O)[nH]1
Kd (hSTING^H232 (aa 140–379)): 170 nM | EC50 comparison (THP1 cells): no difference in the EC50 values | stimulation more effective than c[G(2′,5′)pA(3′,5′)p] (THP1 cells; [5]): 2.9 fold | stimulation more effective than c[G(3′,5′)pA(3′,5′)p] (THP1 cells; [5]): 4.8 fold | IFN reporter response (hSTING^H232): no significant differences in stimulation | Kd (hSTING^R232 [1]): 280 nM

Compound: Nc1nc2c(ncn2[C@@H]2O[C@@H]3COP(=O)(O)O[C@H]4[C@@H](O)[C@H](n5cnc6c(N)ncnc65)O[C@@H]4COP(=O)(O)O[C@H]3[C@H]2O)c(=O)[nH]1 [c[G(3′,5′)pA(3′,5′)p]]
Tbk1 and Irf3 protein phosphorylation (BMDMs): highest levels of Tbk1 and Irf3 protein phosphorylation | Ccl5 mRNA level increase [3]: 38 fold | Ifnb1 mRNA level increase [3]: 1024 fold | Il6 mRNA level increase [3]: 2624 fold

Compound: Nc1nc2c(ncn2[C@@H]2O[C@@H]3COP(=O)(O)O[C@H]4[C@@H](O)[C@H](n5cnc6c(=O)[nH]c(N)nc65)O[C@@H]4COP(=O)(O)O[C@H]3[C@H]2O)c(=O)[nH]1 [c[di-GMP]]
IFN reporter response (hSTING^THP1): residual response to high concentrations of c[di-GMP]; also recorded: reduced IFN-pathway activation | IFN reporter response (hSTING^H232): nonresponsive | IFN reporter response (hSTING^R232 [4]): residual response to high concentrations of c[di-GMP]

Now from value to compound, other results behind:

IFN induction (hSTING S162I mutant): IFN induction was not observed | binding (ITC) ([2]; 25°C): binding | stoichiometry N value of binding curve ([2]; expected 1): ~1.5 | IFN reporter response (hSTING^H232): nonresponsive | binding (ITC) (hSTING^R232/A162; 25°C): binding | stoichiometry N value of binding curve (hSTING^R232/A162; expected 1): ~1.5
Compound: Cc1ccc2c(=O)c3cccc(CC(=O)O)c3oc2c1C [DMXAA, 5,6-dimethylxanthenone-4-acetic acid]
activation of mSting (mSting): activates mSting | effect on hSTING (hSTING): no effect on hSTING

EC50 comparison (THP1 cells): no difference in the EC50 values
Compound: Nc1nc2c(ncn2[C@@H]2O[C@@H]3COP(=O)(O)O[C@H]4[C@@H](O)[C@H](n5cnc6c(N)ncnc65)O[C@@H]4COP(=O)(O)O[C@@H]2[C@@H]3O)c(=O)[nH]1 [c[G(2′,5′)pA(3′,5′)p]]
